Experimental data published in patent US20070129344A1, “Bicyclic 6-alkylidene-penem beta-lactamase inhibitors and beta-lactam antibiotic combination: a broad spectrum antibiotic” (priority 2005, published 2007).
Read-outs that look alike come from different tables or passages of the source.

Columns and labels:
[1] = tested on: E. coli GC 6197 (TEM-1 + SHV-7 + CMY-2); assay: MIC microbroth dilution; β-lactamase class A, A (ESBL), C; type: cell-based; details: Cefepime alone
Procedure: (§1) The in vitro activities of the antibiotics were determined by the microbroth dilution method as recommended by the National Committee for Clinical Laboratory Standards (NCCLS). (NCCLS. 2000. Methods for Dilution Antimicrobial Susceptibility Tests for Bacteria That Grow Aerobically; Approved Standards: M7-A5, vol. 19. National Committee for Clinical Laboratory Standards, Villanova, Pa.). Mueller-Hinton II broth (MHBII)(BBL Cockeysville, Md.), was used for the testing procedure. […]. The plates were incubated for 18-22 hours at 35° C. in ambient air.

[2] = tested on: E. coli GC 2149 (ACT-1; TEM-1 + pl 5.6); assay: as above; type: cell-based; details: Escherichia coli, Cefepime alone, read-out: MIC
Procedure: as §1

[3] = tested on: K. pneumoniae GC 2825 Act 1 + 3 additional; assay: as above; type: cell-based; details: Cefepime alone
Procedure: as §1

[4] = tested on: K. pneumoniae GC 2826 Act 1 + 3 additional; assay: as above; type: cell-based; details: Cefepime alone
Procedure: as §1

[5] = tested on: S. marcescens GC 1781 (Sme-1 + AmpC); assay: MIC microbroth dilution; β-lactamase class A (Cb'ase), C; type: cell-based; details: Serratia marcescens, Cefepime alone, read-out: MIC
Procedure: as §1

[6] = tested on: E. coli GC 1480 OXA-1; assay: MIC microbroth dilution; β-lactamase class D; type: cell-based; details: Escherichia coli, GC1480OXA1, E. coli GC 1480, Cefepime alone, read-out: MIC
Procedure: as §1

[7] = tested on: E. coli GC 1807 OXA-7; assay: MIC microbroth dilution; β-lactamase class D; type: cell-based; details: Escherichia coli, GC1807OXA7, E. coli GC 1807, Cefepime alone, read-out: MIC
Procedure: as §1

[8] = tested on: E. coli GC 6539 CMY-2; assay: MIC microbroth dilution; β-lactamase class C; type: cell-based
Procedure: as §1

[9] = tested on: K. pneumoniae GC 7824 Fox 5; assay: MIC microbroth dilution; β-lactamase class C; type: cell-based
Procedure: as §1

[10] = tested on: P. aeruginosa GC 1763 AmpC-inducible; assay: MIC microbroth dilution; β-lactamase class C; type: cell-based; details: Cefepime alone
Procedure: as §1

[11] = tested on: S. marcescens GC 4132 (AmpC); assay: MIC microbroth dilution; β-lactamase class C; type: cell-based; details: Serratia marcescens, Cefepime alone, read-out: MIC
Procedure: as §1

[12] = tested on: E. cloacae PT 1494 Inducible AmpC; assay: MIC microbroth dilution; β-lactamase class C; type: cell-based; details: Cefepime alone
Procedure: as §1

[13] = tested on: A. baumannii GC 7684 AmpC, AmpC; assay: MIC microbroth dilution; β-lactamase class C; type: cell-based; details: Cefepime alone
Procedure: as §1

[14] = tested on: E. cloacae PT 967 Inducible AmpC; assay: MIC microbroth dilution; β-lactamase class C; type: cell-based; details: Cefepime alone
Procedure: as §1

[15] = tested on: P. aeruginosa ATCC 27853 AmpC-inducable; assay: MIC microbroth dilution; β-lactamase class C; type: cell-based
Procedure: as §1

[16] = tested on: E. cloacae GC 1477 (AmpC); assay: MIC microbroth dilution; β-lactamase class C; type: cell-based; details: Enterobacter cloacae, Cefepime alone, read-out: MIC
Procedure: as §1

[17] = tested on: E. cloacae GC 6991 (AmpC); assay: MIC microbroth dilution; β-lactamase class C; type: cell-based; details: Enterobacter cloacae, Cefepime alone, read-out: MIC
Procedure: as §1

[18] = tested on: E. cloacae GC 1475 (P99); assay: MIC microbroth dilution; β-lactamase class C; type: cell-based; details: Cefepime alone
Procedure: as §1

[19] = tested on: P. aeruginosa GC 1764 (AmpC); assay: MIC microbroth dilution; β-lactamase class C; type: cell-based; details: Cefepime alone
Procedure: as §1

[20] = tested on: K. pn GC 6655 (TEM-1 + ACT-1); assay: MIC microbroth dilution; β-lactamase class A, C; type: cell-based, K. pneumoniae; details: Klebsiella pneumoniae, Cefepime alone, read-out: MIC
Procedure: as §1

[21] = tested on: K. pn GC 3104 (MIR-1 + TEM-1); assay: MIC microbroth dilution; β-lactamase class A, C; type: cell-based, K. pneumoniae; details: Klebsiella pneumoniae, Cefepime alone, read-out: MIC
Procedure: as §1

[22] = tested on: K. pn GC 1516 (TEM-26); assay: MIC microbroth dilution; β-lactamase class A (ESBL); type: cell-based, K. pneumoniae; details: Cefepime alone
Procedure: as §1

[23] = tested on: K. pn GC 1832 (SHV-4); assay: as above; type: cell-based, K. pneumoniae; details: Cefepime alone
Procedure: as §1

[24] = tested on: K. pn GC 1830 (SHV-2); assay: as above; type: cell-based, K. pneumoniae; details: Klebsiella pneumoniae, Cefepime alone, read-out: MIC
Procedure: as §1

[25] = tested on: K. pn GC 6639 (SHV-13); assay: as above; type: cell-based, K. pneumoniae; details: Cefepime alone
Procedure: as §1

[26] = tested on: K. pn GC 1510 (TEM-10); assay: as above; type: cell-based, K. pneumoniae; details: Klebsiella pneumoniae, Cefepime alone, read-out: MIC
Procedure: as §1

[27] = tested on: K. pn GC 1507 (TEM-9 + SHV-1); assay: MIC microbroth dilution; β-lactamase class A, A (ESBL); type: cell-based, K. pneumoniae; details: Cefepime alone
Procedure: as §1

[28] = tested on: K. pn GC 2006 (TEM-10 + SHV-1); assay: as above; type: cell-based, K. pneumoniae; details: Klebsiella pneumoniae, Cefepime alone, read-out: MIC
Procedure: as §1

[29] = tested on: K. pn GC 6488 (TEM-1 + SHV-5 + SHV-7); assay: as above; type: cell-based, K. pneumoniae; details: Klebsiella pneumoniae, Cefepime alone, read-out: MIC
Procedure: as §1

[30] = tested on: K. pn GC 6651 (TEM-1 + SHV-1 + SHV-5); assay: as above; type: cell-based, K. pneumoniae; details: Klebsiella pneumoniae, Cefepime alone, read-out: MIC
Procedure: as §1

[31] = tested on: K. pn GC 1554 (TEM-1 + TEM-26 + SHV-1); assay: as above; type: cell-based, K. pneumoniae; details: Klebsiella pneumoniae, Cefepime alone, read-out: MIC
Procedure: as §1

[32] = tested on: K. pn GC 3057 (CAZ-R; P/T-R); assay: as above; type: cell-based, K. pneumoniae; details: Cefepime alone
Procedure: as §1

[33] = tested on: K. pneumoniae GC 7635 SHV-1, KPC2; assay: MIC microbroth dilution; β-lactamase class A, A (Cb'ase); type: cell-based; details: Cefepime alone
Procedure: as §1

[34] = tested on: E. coli GAR 6649 TEM, OXA, CTX (By PCR only); assay: MIC microbroth dilution; β-lactamase class A, A (ESBL), D; type: cell-based; details: Cefepime alone
Procedure: as §1

[35] = Escherichia coli, control of Compound 1 test, read-out: MIC
[36] = Klebsiella pneumoniae, control of Compound 1 test, read-out: MIC
[37] = Cefepime alone, control of Compound 2 test
[38] = Pseudomonas aeruginosa, control of Compound 1 test, read-out: MIC
[39] = Enterobacter cloacae, control of Compound 1 test, read-out: MIC

Measured: MIC

CO/N=C(\C(=O)N[C@@H]1C(=O)N2C(C(=O)[O-])=C(C[N+]3(C)CCCC3)CS[C@H]12)c1csc(N)n1 [Cefepime, reference compound]
0.12 µg/mL: [7]; control of Compound 1 test | [14]; control of Compound 2 test | [14]; [39]
1 µg/mL: [17]; control of Compound 2 test | [21]; control of Compound 2 test | [24]; control of Compound 1 test
4 µg/mL: [6]; control of Compound 1 test | [16]; control of Compound 1 test | [20]; control of Compound 2 test | [29]; control of Compound 2 test | [30]; control of Compound 2 test
0.25 µg/mL: [5]; control of Compound 1 test | [7]; control of Compound 2 test | [12]; control of Compound 2 test | [12]; [39]
0.06 µg/mL: [5]; control of Compound 2 test
> 16 µg/mL: [1]; [35] | [22]; [36] | [25]; [36] | [28]; control of Compound 1 test | [31]; control of Compound 1 test | [32]; [36] | [33]; [36] | [34]; [35]
0.5 µg/mL: [11]; control of Compound 1 test | [17]; control of Compound 1 test | [21]; control of Compound 1 test | [24]; control of Compound 2 test | [26]; control of Compound 1 test
8 µg/mL: [2]; control of Compound 1 test | [4]; control of Compound 2 test | [4]; [36] | [19]; control of Compound 2 test | [19]; [38] | [27]; control of Compound 2 test | [27]; [36] | [28]; control of Compound 2 test | [29]; control of Compound 1 test | [30]; control of Compound 1 test | [31]; control of Compound 2 test
2 µg/mL: [3]; control of Compound 2 test | [3]; [36] | [6]; control of Compound 2 test | [8]; [37] | [8]; Escherichia coli, GC6539CMY2, Cefepime alone, control of Compound 1 test, read-out: MIC | [9]; [37] | [9]; Klebsiella pneumoniae, GC7824FOX5, Cefepime alone, control of Compound 1 test, read-out: MIC | [10]; control of Compound 2 test | [10]; [38] | [11]; control of Compound 2 test | [15]; [37] | [15]; Pseudomonas aeruginosa, ATCC27853, Cefepime alone, control of Compound 1 test, read-out: MIC | [16]; control of Compound 2 test | [18]; control of Compound 2 test | [18]; [39] | [20]; control of Compound 1 test | [23]; control of Compound 2 test | [23]; [36] | [26]; control of Compound 2 test
>16 µg/mL: [1]; control of Compound 2 test | [22]; control of Compound 2 test | [25]; control of Compound 2 test | [32]; control of Compound 2 test | [33]; control of Compound 2 test | [34]; control of Compound 2 test
16 µg/mL: [2]; control of Compound 2 test | [13]; Acinetobacter baumannii, control of Compound 1 test, read-out: MIC | [13]; control of Compound 2 test
